Results taken from patent US11753408B2, “Compounds and method for blocking transmission of malarial parasite” (The United States of America, as represented by the …, priority 2016, dated 2023).
pEC50: −log10 of the molar value. Where two headings read alike, the source gives them in different places.

Key:
Solubility at pH 7.4 = format: physicochemical
[1] = Microsomal stability (rat); format: in vitro ADME; details: rat microsomes
[2] = system: Stage III-V gametocytes (blood stage P. falciparum parasites); assay: In vitro drug activity on gametocytes (AlamarBlue viability assay); format: cell-based, Plasmodium falciparum; details: read-out: Gametocyte EC50
Outline: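 P. falciparum 3D7 stage III–V gametocytes (also HB3, Dd2), enriched by 50 mM N-acetylglucosamine and Percoll gradient, seeded at 20,000/well with compound for 72 h at 37° C, 5% CO2. AlamarBlue then added for 24 h; viability read as fluorescence (Ex 525, Em 598 nm).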

[3] = system: Asexual parasites of P. falciparum strain 3D7; assay: In vitro drug activity on asexual parasites (SYBR Green assay); format: cell-based, Plasmodium falciparum
Outline: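 3D7 parasites at 0.5% parasitemia and 2% hematocrit were exposed to drugs (DMSO ≤0.5%) for 72 h under standard culture conditions, in duplicate. After freeze-thaw lysis, SYBR Green I lysis buffer was added for 30 min at room temperature, and fluorescence was read at 490/520 nm.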

PAMPA permeability = format: in vitro ADME
[4] = P. falciparum stage III-V gametocytes, 72 h incubation, AlamarBlue
[5] = P. falciparum 3D7 asexual parasites, 72 h, SYBR Green

| Sol @ pH 7.4 (ug/mL) (Solubility at pH 7.4) | Microsomal Stability (rat) T1/2 [1] [min] | pEC50 [3, 5] | PAMPA Permeability (×10^6 cm/s) (PAMPA permeability) | Sol @ pH 7.4 (Solubility at pH 7.4) [ug/mL] | pEC50 [3] | PAMPA Permeability (PAMPA permeability) [×10⁻⁶ cm/s] | Compound | pEC50 [2, 4] | pEC50 [2] |
| --- | --- | --- | --- | --- | --- | --- | --- | --- | --- |
| <1.0 | 4.9 | 7.43 | 97.4 ×10^6 cm/s |  |  |  | CN(C)S(=O)(=O)c1ccc(-n2c(=O)ccc3cnc4ccc(-c5ccc(Cl)cc5)cc4c32)cc1 [Compound 42] | 6.93 |  |
|  | 9 |  |  | <1.0 | 8.16 | 794 | O=C(c1ccc(-n2c(=O)ccc3cnc4ccc(-c5ccc(Cl)cc5)cc4c32)cc1)N1CCOCC1 [Compound 85] |  | 7.11 |
| 33.81 | >30.00 | 7.66 | 133.39 ×10^6 cm/s |  |  |  | CN1C(=O)CCc2cc(-n3c(=O)ccc4cnc5ccc(-c6ccc(N)nc6)cc5c43)ccc21 [Compound 392] | 7.34 |  |
| <1 | 14.5 | 7.22 | <1 ×10^6 cm/s |  |  |  | Cc1c(C#N)cccc1-n1c(=O)ccc2cnc3ccc(-c4ccc(Cl)cc4)cc3c21 [Compound 8] | 6.86 |  |
| 2.7 | 3 | 6.03 | 164.4 ×10^6 cm/s |  |  |  | CN(C)C(=O)c1cc(-c2ccc3ncc4ccc(=O)n(-c5ccc(S(C)(=O)=O)cc5)c4c3c2)ccc1Cl [Compound 50] | 5.74 |  |
| <1.0 | 8.9 | 7.11 | 144.4 ×10^6 cm/s |  |  |  | CS(=O)(=O)c1ccc(-n2c(=O)ccc3cnc4ccc(-c5ccc(Cl)c(N)c5)cc4c32)cc1C(F)(F)F [Compound 45] | 6.68 |  |
| 9.6 | 2.8 | 5.42 | 115.9 ×10^6 cm/s |  |  |  | CCNC(=O)c1cc(-c2ccc3ncc4ccc(=O)n(-c5ccc(S(C)(=O)=O)cc5)c4c3c2)ccc1Cl [Compound 53] | 5.16 |  |
| 58.6 | 10.9 | 6.18 | 1492.3 ×10^6 cm/s |  |  |  | CCN(CC)Cc1ccc(-c2ccc3ncc4ccc(=O)n(-c5cc(C#N)ccc5C)c4c3c2)cc1 [Compound 9] | 5.59 |  |
| >72.0 | >30.0 | 5.84 | 289.4 ×10^6 cm/s |  |  |  | CCN1Cc2cc(-n3c(=O)ccc4cnc5ccc(-c6ccc(CN(C)C)cc6)cc5c43)ccc2C1=O [Compound 348] | 5.61 |  |
| 52.5 | >30 | 5.38 | <1.6 ×10^6 cm/s |  |  |  | CN(C)Cc1ccc(-c2ccc3ncc4ccc(=O)n(-c5ccc6c(c5)NC(=O)C6)c4c3c2)cc1 [Compound 374] | 4.89 |  |
| 4.3 | >30.0 | 6.69 | 43.1 ×10^6 cm/s |  |  |  | CS(=O)(=O)c1ccc(-n2c(=O)ccc3cnc4ccc(-c5ccc(Cl)c(C(N)=O)c5)cc4c32)cc1 [Compound 51] | 6.54 |  |
| 0.6 | 7.4 | 8.05 | 98.56 ×10^6 cm/s |  |  |  | O=C1NCc2cc(-n3c(=O)ccc4cnc5ccc(-c6ccc(F)cc6)cc5c43)ccc21 [Compound 362] | 7.09 |  |
| 7.9 | >30.0 | 6.42 | 527.8 ×10^6 cm/s |  |  |  | CN(C)Cc1ccc(-c2ccc3ncc4ccc(=O)n(-c5ccc(S(=O)(=O)NC6CC6)cc5)c4c3c2)cc1 [Compound 57] | 6.08 |  |
